We go through 13 compounds from patent publication US10077261B2, “Imidazolin-5-one derivative useful as FASN inhibitors for the treatment of cancer” (Janssen Pharmaceutica NV, priority 2012, dated 2018).

Assay [1] concerns the target Fatty Acid Synthase Keto-reductase Domain (FASN KR) (Homo sapiens, UniProt P49327). In words: Fatty Acid Synthase keto-reductase domain (FASN KR) inhibition, NADPH oxidation at 340 nm.
Protocol: After 20 minutes incubation at room temperature the plate was measured again (T2).
The decrease in absorbance was calculated as (Absorbance before incubation T1)−(Absorbance following incubation T2).
A plot of Controlmin versus test compound concentration was fitted to a 4-parameter logistic curve using a non-linear least squares regression method.
Assay [2] deals with T1, hFASN enzyme (full length) (Homo sapiens, UniProt P49327).
T1 construct: 10 μL hFASN enzyme (full length, 300 ng, purified in house); made in house
In words: Fatty Acid Synthase (FASN) inhibition scintillation proximity assay. It counts as biochemical. Conditions: for inhibition at 10 µM: read-out: Human FASN % inhibition @ 10 μM, 10 μM test compound; for IC50: read-out: Human FASN pIC50 (converted). The procedure, abridged: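 Read-out relies on hydrophobic ³H-palmitate product, formed from ³H-acetyl-CoA and malonyl-CoA, binding streptavidin imaging beads, measured at 610±20 nm after at least 24 h. Full-length enzyme (300 ng) in phosphate buffer pH 7.5 with DTT; eight compound concentrations, 0.01–30 μM.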

Assay [3] deals with LNCaP-Vancouver prostate cells. In words: In vitro LNCaP Vancouver prostate cell proliferation assay in lipid reduced medium. It counts as cell-based. Conditions: read-out: pIC50 LNCaP_Vancouver prostate cell (converted).
Assay [4] relates to PC-3M-Luc-C6 prostate cells. In words: In vitro PC-3M-Luc-C6 prostate cell proliferation assay in lipid reduced medium. It counts as cell-based. Conditions: 96 h, read-out: pIC50 PC-3M-Luc-C6 prostate cell (converted).

T1 sequence (P49327 whole entry): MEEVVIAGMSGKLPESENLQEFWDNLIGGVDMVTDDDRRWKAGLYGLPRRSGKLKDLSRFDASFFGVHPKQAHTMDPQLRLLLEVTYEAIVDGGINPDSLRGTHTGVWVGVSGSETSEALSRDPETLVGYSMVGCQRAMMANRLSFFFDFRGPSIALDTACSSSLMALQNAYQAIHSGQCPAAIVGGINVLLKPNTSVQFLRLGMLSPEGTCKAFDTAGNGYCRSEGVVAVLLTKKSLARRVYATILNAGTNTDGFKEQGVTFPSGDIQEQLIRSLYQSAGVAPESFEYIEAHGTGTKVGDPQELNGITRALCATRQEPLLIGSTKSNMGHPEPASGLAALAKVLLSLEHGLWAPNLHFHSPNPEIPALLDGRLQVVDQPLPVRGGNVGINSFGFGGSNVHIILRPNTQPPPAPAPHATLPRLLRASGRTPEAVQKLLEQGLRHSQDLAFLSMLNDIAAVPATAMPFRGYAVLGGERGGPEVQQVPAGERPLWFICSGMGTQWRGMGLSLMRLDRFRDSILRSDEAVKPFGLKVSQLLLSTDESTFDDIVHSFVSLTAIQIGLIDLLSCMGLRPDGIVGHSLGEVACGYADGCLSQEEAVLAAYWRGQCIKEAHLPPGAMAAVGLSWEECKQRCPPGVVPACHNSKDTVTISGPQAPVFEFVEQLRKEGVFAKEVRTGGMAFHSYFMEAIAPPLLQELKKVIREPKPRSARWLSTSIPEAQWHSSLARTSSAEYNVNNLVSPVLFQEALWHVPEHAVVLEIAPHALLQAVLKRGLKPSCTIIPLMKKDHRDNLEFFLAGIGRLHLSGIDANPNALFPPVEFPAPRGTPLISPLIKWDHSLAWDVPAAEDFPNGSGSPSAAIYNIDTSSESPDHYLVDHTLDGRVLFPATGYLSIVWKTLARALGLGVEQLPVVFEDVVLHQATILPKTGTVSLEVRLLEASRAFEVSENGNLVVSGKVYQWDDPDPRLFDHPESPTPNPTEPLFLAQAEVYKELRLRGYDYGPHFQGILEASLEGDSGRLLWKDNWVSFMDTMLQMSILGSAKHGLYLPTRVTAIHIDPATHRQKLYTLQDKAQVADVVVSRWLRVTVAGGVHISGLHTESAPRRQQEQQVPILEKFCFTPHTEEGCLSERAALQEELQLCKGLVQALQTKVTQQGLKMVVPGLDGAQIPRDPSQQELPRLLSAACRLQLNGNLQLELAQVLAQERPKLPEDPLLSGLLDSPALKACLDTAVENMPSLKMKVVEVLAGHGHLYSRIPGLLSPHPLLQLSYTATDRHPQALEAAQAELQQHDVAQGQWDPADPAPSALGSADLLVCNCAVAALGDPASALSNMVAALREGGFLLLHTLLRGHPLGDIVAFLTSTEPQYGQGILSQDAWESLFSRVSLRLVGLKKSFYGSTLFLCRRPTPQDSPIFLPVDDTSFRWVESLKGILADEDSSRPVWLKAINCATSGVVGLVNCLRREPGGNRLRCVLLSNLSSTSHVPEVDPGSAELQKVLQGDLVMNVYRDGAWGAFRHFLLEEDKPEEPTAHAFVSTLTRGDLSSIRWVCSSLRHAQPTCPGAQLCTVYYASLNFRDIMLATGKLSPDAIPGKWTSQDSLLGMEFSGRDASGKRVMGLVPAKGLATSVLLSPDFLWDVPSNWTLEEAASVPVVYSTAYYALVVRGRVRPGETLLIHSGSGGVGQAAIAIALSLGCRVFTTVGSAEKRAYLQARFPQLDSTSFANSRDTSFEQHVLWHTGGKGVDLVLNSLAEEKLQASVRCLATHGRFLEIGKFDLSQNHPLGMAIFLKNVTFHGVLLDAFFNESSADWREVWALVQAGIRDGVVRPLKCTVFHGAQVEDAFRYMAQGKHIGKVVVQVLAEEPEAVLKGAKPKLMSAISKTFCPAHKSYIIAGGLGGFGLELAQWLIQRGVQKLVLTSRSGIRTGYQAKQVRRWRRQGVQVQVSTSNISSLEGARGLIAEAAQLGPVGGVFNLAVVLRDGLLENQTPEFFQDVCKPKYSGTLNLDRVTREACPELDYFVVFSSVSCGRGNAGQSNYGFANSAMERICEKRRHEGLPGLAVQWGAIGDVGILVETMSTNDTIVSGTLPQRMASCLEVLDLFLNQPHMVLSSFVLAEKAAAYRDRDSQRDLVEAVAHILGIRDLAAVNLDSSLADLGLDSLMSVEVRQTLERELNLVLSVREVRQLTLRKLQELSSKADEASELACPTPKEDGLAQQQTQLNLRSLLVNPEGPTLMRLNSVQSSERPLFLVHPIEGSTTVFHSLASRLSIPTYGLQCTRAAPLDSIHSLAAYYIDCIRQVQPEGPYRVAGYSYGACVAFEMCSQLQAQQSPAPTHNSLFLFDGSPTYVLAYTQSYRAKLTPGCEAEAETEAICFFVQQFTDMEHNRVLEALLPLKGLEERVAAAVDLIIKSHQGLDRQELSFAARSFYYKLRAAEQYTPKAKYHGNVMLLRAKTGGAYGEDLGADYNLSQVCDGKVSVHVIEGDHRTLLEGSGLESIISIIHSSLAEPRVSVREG
Fatty Acid Synthase Keto-reductase Domain (FASN KR), sequence (P49327 whole entry, the tested form may be a part): as the sequence (P49327 whole entry) above

As a reminder, the inhibition is the percentage by which the read-out fell short of the control. Consider `Cn1cc(-c2ccc(-c3ccc(C4=NC5(CC5)C(=O)N4CC4CN(C(=O)C5CC5)C4)cc3)cn2)cn1` [compound 517, 6-{[1-(Cyclopropylcarbonyl)azetidin-3-yl]methyl}-5-{4-[6-(1-methyl-1H-pyrazol-4-yl)pyridin-3-yl]phenyl}-4,6-diazaspiro[2.4]hept-4-en-7-one], for which the IC50 was 1510 nM in assay [1], 646 nM in assay [2], approximately 5250 nM in assay [3] and 1260 nM in assay [4]. The inhibition at 10 µM in assay [2] was 88%.

In the case of `O=C(C1CC1)N1CC(CN2C(=O)C3(CC3)N=C2c2ccc(-c3cnc4ccccc4c3)cc2)C1` [compound 519, 6-{[1-(Cyclopropylcarbonyl)azetidin-3-yl]methyl}-5-(4-quinolin-3-ylphenyl)-4,6-diazaspiro[2.4]hept-4-en-7-one], the IC50 in assay [1] was 389 nM; in assay [2] it was 158 nM; in assay [3], 2690 nM; in assay [4] it was 550 nM. The inhibition at 10 µM in assay [2] was determined as 96%.

On to `Cn1cc(-c2ccc(-c3ccc(C4=NC5(CCOCC5)C(=O)N4C[C@@H]4CCN(C(=O)C5CC5)C4)cc3)cc2)cn1` [compound 655, 3-{[(3R)-1-(cyclopropylcarbonyl)pyrrolidin-3-yl]methyl}-2-[4′-(1-methyl-1H-pyrazol-4-yl)biphenyl-4-yl]-8-oxa-1,3-diazaspiro[4.5]dec-1-en-4-one], for which the IC50 was 407 nM in assay [1], 178 nM in assay [2], approximately 2510 nM in assay [3] and approximately 234 nM in assay [4]. Further, the inhibition at 10 µM in assay [2] was 99%.

For the compound `Cn1cc(-c2ccc(-c3ccc(C4=NC5(CCOCC5)C(=O)N4C[C@@H]4CCN(C(=O)[C@H]5CCCO5)C4)cc3)cc2)cn1` [compound 657, 2-[4′-(1-Methyl-1H-pyrazol-4-yl)biphenyl-4-yl]-3-({(3R)-1-[(2R)-tetrahydro-furan-2-ylcarbonyl]pyrrolidin-3-yl}methyl)-8-oxa-1,3-diazaspiro[4.5]dec-1-en-4-one], the IC50 in assay [1] is 661 nM; in assay [2], 309 nM; in assay [3], 3800 nM; in assay [4], 589 nM. In addition, the inhibition at 10 µM in assay [2] is 97%.

Turning to `O=C([C@H]1CCCO1)N1CC[C@@H](CN2C(=O)C3(CCOCC3)N=C2c2ccc(-c3ccc4cccnc4c3)cc2)C1` [compound 663, 2-(4-Quinolin-7-ylphenyl)-3-({(3R)-1-[(2R)-tetrahydro-furan-2-ylcarbonyl]pyrrolidin-3-yl}methyl)-8-oxa-1,3-diazaspiro[4.5]dec-1-en-4-one], the IC50 was 275 nM in assay [1], 64.6 nM in assay [2], 550 nM in assay [3] and 117 nM in assay [4]. In assay [2], the inhibition at 10 µM was 100%.

Turning to `Cn1ncc2cc(-c3ccc(C4=NC5(CCOCC5)C(=O)N4C[C@@H]4CCN(C(=O)[C@H]5CCCO5)C4)cc3)ccc21` [compound 674, 2-[4-(1-Methyl-1H-indazol-5-yl)phenyl]-3-({(3R)-1-[(2R)-tetrahydro-furan-2-ylcarbonyl]pyrrolidin-3-yl}methyl)-8-oxa-1,3-diazaspiro[4.5]dec-1-en-4-one], the IC50 is 3160 nM in assay [1], 457 nM in assay [2], approximately 4900 nM in assay [3] and approximately 813 nM in assay [4]. For the same compound, in assay [2], the inhibition at 10 µM amounted to 94%.

For the compound `Cn1cc(-c2ccc(-c3ccc(C4=NC5(CCOC5)C(=O)N4C[C@@H]4CCN(C(=O)C5CC5)C4)cc3)cc2)cn1` (stereo partly drawn) [compound 676, 3-{[(3R)-1-(Cyclopropylcarbonyl)pyrrolidin-3-yl]methyl}-2-[4′-(1-methyl-1H-pyrazol-4-yl)biphenyl-4-yl]-7-oxa-1,3-diazaspiro[4.4]non-1-en-4-one], the IC50 in assay [1] is 603 nM; in assay [2] it was 269 nM; in assay [3] it was 1780 nM; in assay [4] it was 501 nM. Further, the inhibition at 10 µM in assay [2] came out at 98%.

For the compound `O=C([C@H]1CCCO1)N1CC[C@@H](CN2C(=O)C3(CCOC3)N=C2c2ccc(-c3ccc4occc4c3)cc2)C1` (stereo partly drawn) [compound 688, 2-[4-(1-Benzofuran-5-yl)phenyl]-3-({(3R)-1-[(2R)-tetrahydro-furan-2-ylcarbonyl]pyrrolidin-3-yl}methyl)-7-oxa-1,3-diazaspiro[4.4]non-1-en-4-one], the IC50 in assay [1] is 525 nM; in assay [2] it was 214 nM; in assay [3], 2950 nM; in assay [4], 832 nM. Also, the inhibition at 10 µM in assay [2] worked out at 99%.

For the compound `Cn1ncc2cc(-c3ccc(C4=NC5(CCOC5)C(=O)N4C[C@@H]4CCN(C(=O)[C@H]5CCCO5)C4)cc3)ccc21` (stereo partly drawn) [compound 692, 2-[4-(1-Methyl-1H-indazol-5-yl)phenyl]-3-({(3R)-1-[(2R)-tetrahydro-furan-2-ylcarbonyl]pyrrolidin-3-yl}metrhyl)-7-oxa-1,3-diazaspiro[4.4]non-1-en-4-one], the IC50 was 3240 nM in assay [1], 794 nM in assay [2], 4570 nM in assay [3] and 1580 nM in assay [4]. For the same compound, the inhibition at 10 µM in assay [2] amounted to 99%.

As for `CC(O)C(=O)N1CC(CN2C(=O)C3(CCOCC3)N=C2c2ccc(-c3ccc4cccnc4c3)cc2)C1` (centres unmarked) [compound 699, 3-{[1-(2-Hydroxypropanoyl)azetidin-3-yl]methyl}-2-(4-quinolin-7-ylphenyl)-8-oxa-1,3-diazaspiro[4.5]dec-1-en-4-one], the IC50 was 5370 nM in assay [1], approximately 724 nM in assay [2], more than 10000 nM in assay [3] and 5130 nM in assay [4]. Besides, the inhibition at 10 µM in assay [2] came out at 89%.

In the case of `O=C([C@H]1CCCO1)N1CC(CN2C(=O)C3(CCOCC3)N=C2c2ccc(-c3ccc4occc4c3)cc2)C1` [compound 704, 2-[4-(1-Benzofuran-5-yl)phenyl]-3-({1-[(2R)-tetrahydro-furan-2-ylcarbonyl]azetidin-3-yl}methyl)-8-oxa-1,3-diazaspiro[4.5]dec-1-en-4-one], the IC50 is 6610 nM in assay [1], 871 nM in assay [2], 6920 nM in assay [3] and approximately 5750 nM in assay [4]. Besides, the inhibition at 10 µM in assay [2] came to 86%.

With `CC(O)C(=O)N1CC(CN2C(=O)C3(CCOC3)N=C2c2ccc(-c3ccc4cccnc4c3)cc2)C1` (centres unmarked) [compound 715, 3-{[1-(2-Hydroxypropanoyl)azetidin-3-yl]methyl}-2-(4-quinolin-7-ylphenyl)-7-oxa-1,3-diazaspiro[4.4]non-1-en-4-one], the IC50 in assay [1] is 5500 nM; in assay [2] it was 724 nM; in assay [3], more than 10000 nM; in assay [4], 5010 nM. Moreover, the inhibition at 10 µM in assay [2] worked out at 86%.

Take `O=C([C@H]1CCCO1)N1CC(CN2C(=O)C3(CCOC3)N=C2c2ccc(-c3ccc4occc4c3)cc2)C1` (stereo partly drawn) [compound 720, 2-[4-(1-Benzofuran-5-yl)phenyl]-3-({1-[(2R)-tetrahydro-furan-2-ylcarbonyl]azetidin-3-yl}methyl)-7-oxa-1,3-diazaspiro[4.4]non-1-en-4-one]: the IC50 in assay [1] was 6460 nM; in assay [2], 776 nM; in assay [3] it was 9120 nM; in assay [4] it was 4680 nM. The inhibition at 10 µM in assay [2] came to 87%.
